Test results from patent publication EP0678516B1, “Preparation of 2-bromo-5-(2-bromo-2-nitrovinyl)-furan and its use as microcide” (CENTRO DE BIOACTIVOS QUIMICOS DE LA UNIVERSIDAD CENTRAL DE …, priority 1994, dated 1995).
≈ marks a conversion by molar mass, not a printed value.

What was measured:
[1] = test system: Bacillus subtilis; assay: In vitro MIC (serial dilution); type: cell-based
Experimental: (§1) The antimicrobial sensitivity was first evaluated "in vitro" using the serial dilution method for bacteria and fungi. Other growth methods in agar cultures were included for other species. The liquid and solid mediums used were Mueller-Hinton, Tryptona Soya, Sabouraud Dextrosa, Sabouraud Maltose and other mediums in accordance with the cultural demands of the micro-organisms valued.
(§2) The temperature and incubation period was adjusted to conditions and characteristics of the micro-organisms used.
(§3) The Minimal Inhibitory Concentration (MIC) was calculated in terms of MIC50 and MIC90 in µg/ml.

[2] = test system: Candida albicans; assay: In vitro MIC (serial dilution); type: cell-based
Experimental: as §1, §2, §3

[3] = test system: Candida guilliermondi; assay: In vitro MIC (serial dilution); type: cell-based
Experimental: as §1, §2, §3

[4] = test system: Candida krusei; assay: In vitro MIC (serial dilution); type: cell-based; details: Pichia kudriavzevii
Experimental: as §1, §2, §3

[5] = test system: Candida parasilosis; assay: In vitro MIC (serial dilution); type: cell-based
Experimental: as §1, §2, §3

[6] = test system: Candida pseudotropicalis; assay: In vitro MIC (serial dilution); type: cell-based; details: Kluyveromyces marxianus
Experimental: as §1, §2, §3

[7] = test system: Candida stellatoidea; assay: In vitro MIC (serial dilution); type: cell-based; details: Candida albicans
Experimental: as §1, §2, §3

[8] = test system: Candida tropicalis; assay: In vitro MIC (serial dilution); type: cell-based
Experimental: as §1, §2, §3

[9] = test system: Candida zeyfanoide; assay: In vitro MIC (serial dilution); type: cell-based
Experimental: as §1, §2, §3

[10] = test system: Corynebacterium pyogenes; assay: In vitro MIC (serial dilution); type: cell-based; details: Rhodococcus (subgen. Prescottella) equi
Experimental: as §1, §2, §3

[11] = test system: Enterobacter spp.; assay: In vitro MIC (serial dilution); type: cell-based
Experimental: as §1, §2, §3

[12] = test system: Escherichia coli; assay: In vitro MIC (serial dilution); type: cell-based
Experimental: as §1, §2, §3

[13] = test system: Klebsiella spp. (including K. pneumoniae); assay: In vitro MIC (serial dilution); type: cell-based
Experimental: as §1, §2, §3

[14] = test system: Leptospira pomona; assay: In vitro MIC (serial dilution); type: cell-based
Experimental: as §1, §2, §3

[15] = test system: Listeria monocytogenes; assay: In vitro MIC (serial dilution); type: cell-based
Experimental: as §1, §2, §3

[16] = test system: Moracella bovis; assay: In vitro MIC (serial dilution); type: cell-based
Experimental: as §1, §2, §3

[17] = test system: Neisseria meningitidis; assay: In vitro MIC (serial dilution); type: cell-based
Experimental: as §1, §2, §3

[18] = test system: Pasteurella haemolytica; assay: In vitro MIC (serial dilution); type: cell-based; details: Mannheimia haemolytica
Experimental: as §1, §2, §3

[19] = test system: Pasteurella multocida; assay: In vitro MIC (serial dilution); type: cell-based
Experimental: as §1, §2, §3

[20] = test system: Proteus mirabilis; assay: In vitro MIC (serial dilution); type: cell-based
Experimental: as §1, §2, §3

[21] = test system: Proteus rettgeri; assay: In vitro MIC (serial dilution); type: cell-based; details: Providencia rettgeri
Experimental: as §1, §2, §3

[22] = test system: Proteus vulgaris; assay: In vitro MIC (serial dilution); type: cell-based
Experimental: as §1, §2, §3

[23] = test system: Pseudomonas aerguinosa; assay: In vitro MIC (serial dilution); type: cell-based
Experimental: as §1, §2, §3

[24] = test system: Pseudomonas maltophila; assay: In vitro MIC (serial dilution); type: cell-based
Experimental: as §1, §2, §3

[25] = test system: Salmonella choleraesuis; assay: In vitro MIC (serial dilution); type: cell-based; details: Salmonella enterica
Experimental: as §1, §2, §3

[26] = test system: Salmonella dublin; assay: In vitro MIC (serial dilution); type: cell-based; details: Salmonella enterica
Experimental: as §1, §2, §3

[27] = test system: Salmonella oxford; assay: In vitro MIC (serial dilution); type: cell-based
Experimental: as §1, §2, §3

[28] = test system: Salmonella thyphi; assay: In vitro MIC (serial dilution); type: cell-based
Experimental: as §1, §2, §3

[29] = test system: Salmonella typhimurium; assay: In vitro MIC (serial dilution); type: cell-based; details: Salmonella enterica
Experimental: as §1, §2, §3

[30] = test system: Sarcina lutea; assay: In vitro MIC (serial dilution); type: cell-based; details: Micrococcus luteus
Experimental: as §1, §2, §3

[31] = test system: Serratia marcescens; assay: In vitro MIC (serial dilution); type: cell-based
Experimental: as §1, §2, §3

[32] = test system: Staphylococcus albus; assay: In vitro MIC (serial dilution); type: cell-based
Experimental: as §1, §2, §3

[33] = test system: Streptococcus agalactiae; assay: In vitro MIC (serial dilution); type: cell-based
Experimental: as §1, §2, §3

[34] = test system: Streptococcus pyogenes; assay: In vitro MIC (serial dilution); type: cell-based
Experimental: as §1, §2, §3

[35] = test system: Trichophyton mentagrophytes; assay: In vitro MIC (serial dilution); type: cell-based
Experimental: as §1, §2, §3

[36] = test system: Trichophyton rubrum; assay: In vitro MIC (serial dilution); type: cell-based
Experimental: as §1, §2, §3

[37] = test system: Pseudomonas aeruginosa; assay: Infected burn wound treated with ointments; type: in vivo, guinea-pigs; details: concentration of ointment applied on 2 cm^2 infected burns
Experimental: The "in vivo" effectiveness of four ointments of 2-bromo-5-(2-bromo-2-nitro-vinyl)-furan was evaluated at 1, 0.5, 0.25 and 0.125% in hydrophislous ointment applying it on 2 cm^2 of burns provoked to guinea-pigs and subsequently infected with Pseudomonas aeruginosa by a burn wound in an area of 2 cm^2, using positive and negative control groups.

[38] = test system: Streptococcus agalactiae and Staphylococcus aureus; assay: Intracisternal treatment of clinical mastitis; type: in vivo, femal oxes
Excerpt: The active principle in a concentration of 0.1 % is applied by intracisternal route daily for three consecutive days in femal oxes clinically affected by mastitis of morbid catarrh purulen course types, in which the isolated micro-organisms were Streptococcus agalactiae and Staphylococcus aureus. As a control medicament the mammary infusion of neomicine was used.

In the case of O=[N+]([O-])C(Br)=Cc1ccc(Br)o1 [Product G-1, 2-bromo-5-(2-bromo-2-nitro-vinyl)-furan], the MIC50 [1] is reported as 2.27 µg/mL (≈ 7.65 µM), the MIC90 [1] is reported as 5.08 µg/mL (≈ 17.1 µM) and the MIC50 [2] is reported as 3.11 µg/mL (≈ 10.5 µM). It also gave an MIC90 [2] of 7.95 µg/mL (≈ 26.8 µM), an MIC50 [3] of 1.92 µg/mL (≈ 6.47 µM) and an MIC90 [3] of 2.84 µg/mL (≈ 9.57 µM). It also gave an MIC50 [4] of 1.92 µg/mL (≈ 6.47 µM), an MIC90 [4] of 2.84 µg/mL (≈ 9.57 µM) and an MIC50 [5] of 3.56 µg/mL (≈ 12 µM). It also gave an MIC90 [5] of 6.93 µg/mL (≈ 23.3 µM), an MIC50 [6] of 1.92 µg/mL (≈ 6.47 µM) and an MIC90 [6] of 3.56 µg/mL (≈ 12 µM). It also gave an MIC50 [7] of 1.92 µg/mL (≈ 6.47 µM), an MIC90 [7] of 3.56 µg/mL (≈ 12 µM) and an MIC50 [8] of 2.78 µg/mL (≈ 9.36 µM). It also gave an MIC90 [8] of 5.29 µg/mL (≈ 17.8 µM), an MIC50 [9] of 1.92 µg/mL (≈ 6.47 µM) and an MIC90 [9] of 3.56 µg/mL (≈ 12 µM). It also gave an MIC50 [10] of 3.56 µg/mL (≈ 12 µM), an MIC90 [10] of 5.59 µg/mL (≈ 18.8 µM) and an MIC50 [11] of 5.3 µg/mL (≈ 17.9 µM). For the same compound, the MIC90 [11] was 17.2 µg/mL (≈ 57.8 µM), the MIC50 [12] was 7.53 µg/mL (≈ 25.4 µM) and the MIC90 [12] was 16 µg/mL (≈ 53.8 µM). The MIC50 [13] was 11 µg/mL (≈ 37 µM), the MIC90 [13] was 21.3 µg/mL (≈ 71.9 µM) and the MIC50 [14] was 8.84 µg/mL (≈ 29.8 µM). For the same compound, the MIC90 [14] was 11.7 µg/mL (≈ 39.3 µM), the MIC50 [15] was 3.13 µg/mL (≈ 10.5 µM) and the MIC90 [15] was 5.44 µg/mL (≈ 18.3 µM). It also gave an MIC50 [16] of 2.63 µg/mL (≈ 8.86 µM), an MIC90 [16] of 5.08 µg/mL (≈ 17.1 µM) and an MIC50 [17] of 1.84 µg/mL (≈ 6.2 µM). The MIC90 [17] was 3.47 µg/mL (≈ 11.7 µM), the MIC50 [18] was 3.72 µg/mL (≈ 12.5 µM) and the MIC90 [18] was 5.63 µg/mL (≈ 19 µM). The MIC50 [19] was 3.59 µg/mL (≈ 12.1 µM), the MIC90 [19] was 9.47 µg/mL (≈ 31.9 µM) and the MIC50 [20] was 9.36 µg/mL (≈ 31.5 µM). It also gave an MIC90 [20] of 24.1 µg/mL (≈ 81.3 µM), an MIC50 [21] of 2.78 µg/mL (≈ 9.36 µM) and an MIC90 [21] of 9.92 µg/mL (≈ 33.4 µM). It also gave an MIC50 [22] of 5.95 µg/mL (≈ 20 µM), an MIC90 [22] of 19.8 µg/mL (≈ 66.5 µM) and an MIC50 [23] of 7.84 µg/mL (≈ 26.4 µM). It also gave an MIC90 [23] of 15 µg/mL (≈ 50.4 µM), an MIC50 [24] of 29.7 µg/mL (≈ 100 µM) and an MIC90 [24] of 45.1 µg/mL (≈ 152 µM). It also gave an MIC50 [25] of 5.57 µg/mL (≈ 18.8 µM), an MIC90 [25] of 10.5 µg/mL (≈ 35.4 µM) and an MIC50 [26] of 4.38 µg/mL (≈ 14.8 µM). The MIC90 [26] was 5.73 µg/mL (≈ 19.3 µM), the MIC50 [27] was 4.42 µg/mL (≈ 14.9 µM) and the MIC90 [27] was 5.83 µg/mL (≈ 19.6 µM). The MIC50 [28] was 2.5 µg/mL (≈ 8.42 µM), the MIC90 [28] was 10 µg/mL (≈ 33.7 µM) and the MIC90 ([29]; TYPHIMURIUM, read-out: MIC90 values) was 17.7 µg/mL (≈ 59.5 µM). For the same compound, the MIC50 ([29]; Salmonella typhimurium) was 7.43 µg/mL (≈ 25 µM), the MIC50 [30] was 1.56 µg/mL (≈ 5.25 µM) and the MIC90 [30] was 4.43 µg/mL (≈ 14.9 µM). It also gave an MIC50 [31] of 5.03 µg/mL (≈ 16.9 µM), an MIC90 [31] of 10.9 µg/mL (≈ 36.9 µM) and an MIC50 [32] of 10.2 µg/mL (≈ 34.5 µM). The MIC90 [32] was 19.8 µg/mL (≈ 66.8 µM), the MIC50 [33] was 1.99 µg/mL (≈ 6.7 µM) and the MIC90 [33] was 4.55 µg/mL (≈ 15.3 µM). For the same compound, the MIC50 [34] was 1.86 µg/mL (≈ 6.26 µM), the MIC90 [34] was 4.42 µg/mL (≈ 14.9 µM) and the MIC90 [35] was 40.6 µg/mL (≈ 137 µM). The MIC50 ([35]; read-out: MIC50 values) was 17.7 µg/mL (≈ 59.5 µM), the MIC50 [36] was 13.8 µg/mL (≈ 46.5 µM) and the MIC90 [36] was 24 µg/mL (≈ 80.9 µM). For the same compound, the “effective dose 50 (ED50)” value [37] was 0.125%, the “Recuperated n (affected parts)” value ([38]; G-I 0.1% intracisternal daily for three days (57 parts), neomicine mammary infusion (12 parts)) was 56 and the “Recuperated % (clinical recuperation of the affected parts)” value ([38]; G-I 0.1% intracisternal daily for three days, neomicine mammary infusion) was 98.25%.
